Source: the OligoGym collection
Where “and” joins values, the source holds several entries; their conditions need not be identical. Identical values can stand only once. HELM strings list units from the 5' end as sugar, base in round brackets, then linkage (d deoxyribose, r ribose, m 2'-O-methyl, p phosphodiester). Strings are as the collection lists them, not checked against the first reports. ss, as = sense and antisense strand; [lna] = locked nucleic acid (LNA); [una] = unlocked nucleic acid; [hna] = hexitol nucleic acid; [fl2r] = 2'-fluoro

Settings: siRNA
Also: test system not given here.

Substance	target mRNA knockdown
RNA1{m(A)p.m(A)p.r(C)p.r(C)p.r(C)p.m(A)p.r(C)p.r(C)p.m(A)p.r(C)p.m(A)p.r(G)p.r(C)p.r(U)p.m(A)p.r(G)p.m(A)p.m(A)p.r(C)p.m(U)p.m(U)}|RNA2{r(A)p.r(A)p.r(G)p.r(U)p.r(U)p.r(C)p.r(U)p.r(A)p.r(G)p.r(C)p.r(U)p.r(G)p.r(U)p.r(G)p.r(G)p.r(U)p.r(G)p.r(G)p.r(G)p.r(U)p.r(U)}$$$RNA1{StrandType:ss}|RNA2{StrandType:as}$	42%
RNA1{r(G)p.r(G)p.r(A)p.r(A)p.r(G)p.r(U)p.r(C)p.m(C)p.m(A)p.r(C)p.r(C)p.m(U)p.m(U)p.r(C)p.r(U)p.r(C)p.r(C)p.r(G)p.r(A)p.r(T)p.r(T)}|RNA2{r(U)p.r(C)p.r(G)p.r(G)p.r(A)p.r(G)p.r(A)p.r(A)p.r(G)p.r(G)p.m(U)p.r(G)p.r(G)p.r(A)p.r(C)p.r(U)p.r(U)p.r(C)p.r(C)p.r(T)p.r(T)}$$$RNA1{StrandType:ss}|RNA2{StrandType:as}$	51%
RNA1{[fl2r](U)p.r(U)p.[fl2r](A)p.r(C)p.[fl2r](C)p.r(C)p.[fl2r](C)p.r(G)p.[fl2r](A)p.r(U)p.[fl2r](U)p.r(C)p.[fl2r](A)p.r(G)p.[fl2r](C)p.r(C)p.[fl2r](U)p.r(C)p.[fl2r](U)p.r(T)p.r(T)}|RNA2{r(A)p.r(G)p.r(A)p.r(G)p.r(G)p.r(C)p.r(U)p.r(G)p.r(A)p.r(A)p.r(U)p.r(C)p.r(G)p.r(G)p.r(G)p.r(G)p.r(U)p.r(A)p.r(A)p.r(T)p.r(T)}$$$RNA1{StrandType:ss}|RNA2{StrandType:as}$	67%
RNA1{r(G)p.r(G)p.r(G)p.r(A)p.r(G)p.r(G)p.r(A)p.r(U)p.r(G)p.r(A)p.r(C)p.r(A)p.r(A)p.r(A)p.r(G)p.r(A)p.r(A)p.r(G)p.r(C)p.r(T)p.r(T)}|RNA2{r(G)p.[fl2r](C)p.r(U)p.r(U)p.[fl2r](C)p.r(U)p.r(U)p.r(U)p.r(G)p.r(U)p.[fl2r](C)p.r(A)p.r(U)p.[fl2r](C)p.[fl2r](C)p.r(U)p.[fl2r](C)p.[fl2r](C)p.[fl2r](C)p.r(T)p.r(T)}$$$RNA1{StrandType:ss}|RNA2{StrandType:as}$	37%
RNA1{r(C)p.r(G)p.r(G)p.r(G)p.[fl2r](U)p.[fl2r](A)p.r(C)p.r(G)p.r(A)p.r(G)p.r(C)p.r(C)p.r(G)p.r(G)p.r(A)p.r(A)p.r(C)p.r(C)p.r(U)p.r(T)p.r(T)}|RNA2{r(A)p.r(G)p.r(G)p.r(U)p.r(U)p.r(C)p.r(C)p.r(G)p.r(G)p.r(C)p.r(U)p.r(C)p.r(G)p.[fl2r](U)p.r(A)p.r(C)p.r(C)p.r(C)p.r(G)p.r(T)p.r(T)}$$$RNA1{StrandType:ss}|RNA2{StrandType:as}$	68%
RNA1{r(A)p.r(G)p.r(A)p.r(A)p.r(G)p.m(U)p.r(A)p.r(C)p.r(C)p.r(A)p.r(G)p.r(G)p.r(A)p.r(G)p.r(G)p.r(C)p.r(G)p.r(U)p.r(U)p.r(T)p.r(T)}|RNA2{r(A)p.r(A)p.r(C)p.r(G)p.r(C)p.r(C)p.r(U)p.r(C)p.r(C)p.r(U)p.r(G)p.r(G)p.m(U)p.r(A)p.r(C)p.r(U)p.r(U)p.r(C)p.r(U)p.r(T)p.r(T)}$$$RNA1{StrandType:ss}|RNA2{StrandType:as}$	69%
RNA1{[lna](T)p.r(G)p.r(A)p.r(G)p.r(A)p.r(G)p.r(A)p.r(A)p.r(A)p.r(G)p.r(C)p.r(A)p.r(C)p.r(A)p.r(G)p.r(A)p.r(A)p.r(A)p.r(A)p.[lna](T)p.[lna](T)}|RNA2{[lna](T)p.r(U)p.r(U)p.r(U)p.r(C)p.r(U)p.r(G)p.r(U)p.r(G)p.r(C)p.r(U)p.r(U)p.r(U)p.r(C)p.r(U)p.r(C)p.r(U)p.r(C)p.r(A)p.[lna](T)p.[lna](T)}$$$RNA1{StrandType:ss}|RNA2{StrandType:as}$	67% and 72%
RNA1{r(A)p.r(G)p.r(C)p.r(C)p.r(U)p.r(C)p.[fl2r](C)p.r(A)p.r(A)p.r(A)p.r(C)p.r(U)p.r(C)p.r(C)p.[fl2r](U)p.r(A)p.r(G)p.r(C)p.r(U)p.r(T)p.r(T)}|RNA2{r(A)p.r(G)p.r(C)p.r(U)p.r(A)p.r(G)p.r(G)p.r(A)p.r(G)p.r(U)p.r(U)p.r(U)p.r(G)p.r(G)p.r(A)p.r(G)p.r(G)p.r(C)p.r(U)p.r(T)p.r(T)}$$$RNA1{StrandType:ss}|RNA2{StrandType:as}$	32%
RNA1{r(C)p.r(U)p.r(U)p.r(A)p.r(C)p.r(G)p.r(C)p.r(U)p.r(G)p.r(A)p.r(G)p.r(U)p.r(A)p.r(C)p.r(U)p.r(U)p.r(C)p.r(G)p.r(A)p.r(T)p.r(T)}|RNA2{r(U)p.r(C)p.r(G)p.r(A)p.r(A)p.r(G)p.r(U)p.[lna](A)p.r(C)p.r(U)p.r(C)p.r(A)p.r(G)p.r(C)p.r(G)p.r(U)p.r(A)p.r(A)p.r(G)p.r(T)p.r(T)}$$$RNA1{StrandType:ss}|RNA2{StrandType:as}$	86%
RNA1{r(C)p.r(C)p.r(G)p.r(C)p.r(C)p.r(C)p.r(G)p.r(G)p.r(C)p.r(G)p.r(G)p.r(C)p.r(G)p.r(C)p.r(C)p.r(U)p.r(U)p.r(U)p.m(A)p.r(T)p.r(T)}|RNA2{m(U)p.m(A)p.r(A)p.r(A)p.r(G)p.r(G)p.r(C)p.r(G)p.r(C)p.r(C)p.r(G)p.r(C)p.r(C)p.r(G)p.r(G)p.r(G)p.r(C)p.r(G)p.r(G)p.r(T)p.r(T)}$$$RNA1{StrandType:ss}|RNA2{StrandType:as}$	82%
RNA1{r(G)p.r(G)p.r(A)p.r(C)p.r(A)p.r(U)p.r(U)p.r(C)p.r(A)p.r(G)p.r(A)p.r(A)p.r(C)p.r(A)p.r(A)p.r(G)p.r(A)p.r(A)p.r(A)p.[una](U)p.[una](U)}|RNA2{r(U)p.r(U)p.r(U)p.[una](C)p.r(U)p.r(U)p.r(G)p.r(U)p.r(U)p.r(C)p.r(U)p.r(G)p.r(A)p.r(A)p.r(U)p.r(G)p.r(U)p.r(C)p.r(C)p.[una](U)p.[una](U)}$$$RNA1{StrandType:ss}|RNA2{StrandType:as}$	50%
RNA1{r(G)p.r(A)p.r(C)p.r(G)p.[hna](U)p.r(A)p.r(A)p.[hna](A)p.r(C)p.r(G)p.[hna](G)p.r(C)p.r(C)p.[hna](A)p.r(C)p.r(A)p.r(A)p.r(G)p.[hna](U)p.[hna](U)p.d(T)}|RNA2{r(A)p.r(C)p.r(U)p.r(U)p.r(G)p.r(U)p.r(G)p.r(G)p.r(C)p.r(C)p.r(G)p.r(U)p.r(U)p.r(U)p.r(A)p.r(C)p.r(G)p.[hna](U)p.[hna](C)p.[hna](G)p.d(T)}$$$RNA1{StrandType:ss}|RNA2{StrandType:as}$	74.2%
RNA1{m(A)p.r(A)p.m(C)p.r(U)p.m(U)p.r(C)p.m(U)p.r(G)p.m(G)p.r(G)p.m(A)p.r(G)p.m(C)p.r(C)p.m(U)p.r(C)p.m(C)p.r(A)p.m(A)p.r(T)p.r(T)}|RNA2{r(U)p.r(U)p.r(G)p.r(G)p.m(A)p.r(G)p.r(G)p.r(C)p.r(U)p.r(C)p.r(C)p.r(C)p.m(A)p.r(G)p.m(A)p.m(A)p.r(G)p.r(U)p.r(U)p.r(T)p.r(T)}$$$RNA1{StrandType:ss}|RNA2{StrandType:as}$	42%
RNA1{r(G)p.r(C)p.r(G)p.r(A)p.r(G)p.m(C)p.r(A)p.r(G)p.r(A)p.r(G)p.r(A)p.r(A)p.r(U)p.r(C)p.m(U)p.r(A)p.r(C)p.r(C)p.r(U)p.r(T)p.r(T)}|RNA2{r(A)p.r(G)p.r(G)p.m(U)p.r(A)p.r(G)p.r(A)p.r(U)p.r(U)p.r(C)p.r(U)p.r(C)p.m(U)p.r(G)p.r(C)p.r(U)p.r(C)p.r(G)p.r(C)p.r(T)p.r(T)}$$$RNA1{StrandType:ss}|RNA2{StrandType:as}$	90%
